According to US10710978B2, “STK4 inhibitors for treatment of hematologic malignancies” (Dana-Farber Cancer Institute, Inc., priority 2015, dated 2020):
Values joined by “and” are separate entries in the source; they are usually repeats but may differ in a detail not shown here. Equal entries are not always repeated. Where two headings read alike, the source gives them in different places.

Experiments:
Assay in all cases: KiNativ assay
Type in all cases: binding
MASTL = MASTL (Homo sapiens (Human), UniProt Q96GX5); conditions: H929 live cell
Method: (§1) Biochemical IC50s of the compounds of the present disclosure against various kinases were measured in a KiNativ assay. Compounds were screened in duplicate at 10 μM in H929 live cell. IC50 was measured via Mass spectroscopy (MS).

TYK2 domain2 = TYK2 domain2 (Homo sapiens (Human), UniProt P29597); conditions: H929 live cell
Method: as §1

p38d, p38g = conditions: H929 live cell; for % inhibition (range): 10 μM
Method: as §1

PKR = PKR (Homo sapiens (Human), UniProt P19525); conditions: H929 live cell
Method: as §1

NuaK1 = NuaK1 (Homo sapiens (Human), UniProt O60285); conditions: H929 live cell
Method: as §1

CK1a = CK1a (Homo sapiens (Human), UniProt P48729); conditions: H929 live cell
Method: as §1

Erk1 = Erk1 (Homo sapiens (Human), UniProt P27361); conditions: H929 live cell
Method: as §1

CLK2 = CLK2 (Homo sapiens (Human), UniProt P49760); conditions: H929 live cell
Method: as §1

MPSK1 = MPSK1 (Homo sapiens (Human), UniProt O75716); conditions: H929 live cell
Method: as §1

CDK7 = CDK7 (Homo sapiens (Human), UniProt P50613); conditions: H929 live cell
Method: as §1

PKCi = PKCi (Homo sapiens (Human), UniProt P41743); conditions: H929 live cell
Method: as §1

NEK3 = NEK3 (Homo sapiens (Human), UniProt P51956); conditions: H929 live cell
Method: as §1

MARK3 = MARK3 (Homo sapiens (Human), UniProt P27448); conditions: H929 live cell
Method: as §1

IRAK1 = IRAK1 (Homo sapiens (Human), UniProt P51617); conditions: H929 live cell
Method: as §1

GSK3A = GSK3A (Homo sapiens (Human), UniProt P49840); conditions: H929 live cell
Method: as §1

MST1 = MST1 (Homo sapiens (Human), UniProt Q13043); conditions: H929 live cell
Method: as §1

MAP2K3 = MAP2K3 (Homo sapiens (Human), UniProt P46734); conditions: H929 live cell
Method: as §1

p70S6K = p70S6K (Homo sapiens (Human), UniProt P23443); conditions: H929 live cell
Method: as §1

MAST3 = MAST3 (Homo sapiens (Human), UniProt O60307); conditions: H929 live cell
Method: as §1

p38a = p38a (Homo sapiens (Human), UniProt Q16539); conditions: H929 live cell, read-out: % inhibition (range)
How it was run: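 Live H929 cells, compound 10 μM, duplicate; KiNativ probe profiling; IC50 by MS.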

SNRK = SNRK (Homo sapiens (Human), UniProt Q9NRH2); conditions: H929 live cell
Method: as §1

HPK1 = HPK1 (Homo sapiens (Human), UniProt Q92918); conditions: H929 live cell
Method: as §1

JAK3 domain2 = JAK3 domain2 (Homo sapiens (Human), UniProt P52333); conditions: H929 live cell
Method: as §1

Sequence of Erk1 (P27361 whole entry): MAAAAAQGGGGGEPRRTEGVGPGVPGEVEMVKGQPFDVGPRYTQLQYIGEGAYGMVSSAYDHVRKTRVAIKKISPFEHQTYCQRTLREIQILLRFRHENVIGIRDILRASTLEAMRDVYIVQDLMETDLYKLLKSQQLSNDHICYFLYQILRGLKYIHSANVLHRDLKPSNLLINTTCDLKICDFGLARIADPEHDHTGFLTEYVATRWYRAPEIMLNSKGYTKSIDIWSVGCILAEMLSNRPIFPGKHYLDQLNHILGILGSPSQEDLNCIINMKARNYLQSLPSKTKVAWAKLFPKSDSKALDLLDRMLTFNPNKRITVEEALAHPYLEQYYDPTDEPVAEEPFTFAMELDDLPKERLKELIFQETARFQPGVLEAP
Sequence of MAP2K3 (P46734 whole entry): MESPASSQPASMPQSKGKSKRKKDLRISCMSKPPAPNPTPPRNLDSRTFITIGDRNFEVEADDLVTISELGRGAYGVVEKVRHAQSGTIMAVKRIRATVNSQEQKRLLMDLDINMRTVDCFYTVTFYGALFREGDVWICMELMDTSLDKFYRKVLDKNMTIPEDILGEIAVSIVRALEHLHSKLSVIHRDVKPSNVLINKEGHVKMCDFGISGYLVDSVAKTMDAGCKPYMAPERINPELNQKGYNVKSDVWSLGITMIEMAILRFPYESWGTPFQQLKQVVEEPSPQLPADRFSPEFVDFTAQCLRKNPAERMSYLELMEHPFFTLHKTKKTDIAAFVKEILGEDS
Sequence of MPSK1 (O75716 whole entry): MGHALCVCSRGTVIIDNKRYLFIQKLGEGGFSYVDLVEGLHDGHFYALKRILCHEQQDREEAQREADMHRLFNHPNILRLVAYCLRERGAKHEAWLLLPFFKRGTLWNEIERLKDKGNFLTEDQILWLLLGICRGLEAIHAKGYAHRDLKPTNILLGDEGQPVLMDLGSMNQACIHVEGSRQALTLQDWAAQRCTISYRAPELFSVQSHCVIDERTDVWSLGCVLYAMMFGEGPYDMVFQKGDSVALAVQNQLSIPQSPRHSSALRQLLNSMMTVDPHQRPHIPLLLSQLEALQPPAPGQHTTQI
Sequence of CK1a (P48729 whole entry): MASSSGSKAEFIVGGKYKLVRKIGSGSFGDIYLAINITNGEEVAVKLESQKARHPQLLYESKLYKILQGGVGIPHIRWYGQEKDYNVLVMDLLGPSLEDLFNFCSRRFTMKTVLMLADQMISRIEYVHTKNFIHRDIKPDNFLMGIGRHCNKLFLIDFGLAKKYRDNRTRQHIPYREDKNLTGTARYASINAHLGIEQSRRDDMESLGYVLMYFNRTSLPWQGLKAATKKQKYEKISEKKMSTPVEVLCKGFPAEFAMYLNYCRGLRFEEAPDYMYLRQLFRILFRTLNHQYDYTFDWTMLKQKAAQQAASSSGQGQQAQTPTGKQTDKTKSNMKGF
Sequence of MASTL (Q96GX5 whole entry): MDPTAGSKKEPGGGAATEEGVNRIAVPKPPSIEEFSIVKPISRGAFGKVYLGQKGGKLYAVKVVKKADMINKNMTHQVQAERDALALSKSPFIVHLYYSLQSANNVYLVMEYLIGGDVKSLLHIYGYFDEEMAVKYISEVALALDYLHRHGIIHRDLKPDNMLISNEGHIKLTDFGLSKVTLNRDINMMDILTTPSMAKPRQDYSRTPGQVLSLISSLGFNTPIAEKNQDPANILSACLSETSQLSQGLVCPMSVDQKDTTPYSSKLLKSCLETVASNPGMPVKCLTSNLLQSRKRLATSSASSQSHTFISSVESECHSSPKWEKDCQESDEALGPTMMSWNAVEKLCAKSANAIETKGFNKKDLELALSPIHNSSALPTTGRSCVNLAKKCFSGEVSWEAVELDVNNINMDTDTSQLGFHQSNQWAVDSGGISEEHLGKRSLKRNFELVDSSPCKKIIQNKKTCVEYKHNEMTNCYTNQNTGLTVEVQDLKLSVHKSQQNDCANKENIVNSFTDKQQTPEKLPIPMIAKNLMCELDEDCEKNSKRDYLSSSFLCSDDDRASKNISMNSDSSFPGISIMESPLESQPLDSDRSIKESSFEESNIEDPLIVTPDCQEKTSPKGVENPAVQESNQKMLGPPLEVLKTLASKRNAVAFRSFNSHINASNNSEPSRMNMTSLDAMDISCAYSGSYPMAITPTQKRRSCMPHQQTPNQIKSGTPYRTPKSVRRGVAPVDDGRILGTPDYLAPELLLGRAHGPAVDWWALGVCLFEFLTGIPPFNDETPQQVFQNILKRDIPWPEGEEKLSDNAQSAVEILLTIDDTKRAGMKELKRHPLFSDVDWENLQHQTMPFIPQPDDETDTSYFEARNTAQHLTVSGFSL
Sequence of JAK3 domain2 (P52333 whole entry, the tested form may be a part): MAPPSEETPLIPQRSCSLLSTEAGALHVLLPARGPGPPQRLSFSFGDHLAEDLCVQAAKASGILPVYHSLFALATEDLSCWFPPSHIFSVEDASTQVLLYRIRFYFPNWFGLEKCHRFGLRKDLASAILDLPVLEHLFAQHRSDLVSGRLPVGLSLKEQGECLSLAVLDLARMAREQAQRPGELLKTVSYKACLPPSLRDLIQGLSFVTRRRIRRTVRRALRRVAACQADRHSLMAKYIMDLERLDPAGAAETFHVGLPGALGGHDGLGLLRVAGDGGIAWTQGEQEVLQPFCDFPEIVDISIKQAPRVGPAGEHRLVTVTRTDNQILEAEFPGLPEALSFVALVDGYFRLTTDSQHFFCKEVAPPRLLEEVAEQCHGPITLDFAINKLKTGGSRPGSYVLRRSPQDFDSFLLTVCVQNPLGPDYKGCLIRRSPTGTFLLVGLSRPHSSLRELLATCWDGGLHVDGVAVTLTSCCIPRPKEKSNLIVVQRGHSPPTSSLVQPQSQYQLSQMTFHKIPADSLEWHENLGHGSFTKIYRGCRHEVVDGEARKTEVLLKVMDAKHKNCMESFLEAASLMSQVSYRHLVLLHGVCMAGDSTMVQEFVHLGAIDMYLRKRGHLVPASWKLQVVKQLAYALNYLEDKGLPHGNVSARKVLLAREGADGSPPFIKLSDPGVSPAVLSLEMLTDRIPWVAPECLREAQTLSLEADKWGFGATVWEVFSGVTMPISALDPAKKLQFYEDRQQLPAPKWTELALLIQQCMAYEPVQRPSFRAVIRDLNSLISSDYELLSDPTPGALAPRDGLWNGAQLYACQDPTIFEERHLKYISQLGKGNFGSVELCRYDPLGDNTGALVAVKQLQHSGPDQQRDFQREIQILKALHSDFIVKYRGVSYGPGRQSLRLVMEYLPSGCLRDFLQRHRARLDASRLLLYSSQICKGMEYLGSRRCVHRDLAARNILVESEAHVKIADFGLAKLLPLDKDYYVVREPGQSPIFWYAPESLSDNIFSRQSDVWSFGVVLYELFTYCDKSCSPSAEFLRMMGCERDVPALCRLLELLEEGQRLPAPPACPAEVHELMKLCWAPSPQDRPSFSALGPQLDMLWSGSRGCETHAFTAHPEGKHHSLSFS
Sequence of PKCi (P41743 whole entry): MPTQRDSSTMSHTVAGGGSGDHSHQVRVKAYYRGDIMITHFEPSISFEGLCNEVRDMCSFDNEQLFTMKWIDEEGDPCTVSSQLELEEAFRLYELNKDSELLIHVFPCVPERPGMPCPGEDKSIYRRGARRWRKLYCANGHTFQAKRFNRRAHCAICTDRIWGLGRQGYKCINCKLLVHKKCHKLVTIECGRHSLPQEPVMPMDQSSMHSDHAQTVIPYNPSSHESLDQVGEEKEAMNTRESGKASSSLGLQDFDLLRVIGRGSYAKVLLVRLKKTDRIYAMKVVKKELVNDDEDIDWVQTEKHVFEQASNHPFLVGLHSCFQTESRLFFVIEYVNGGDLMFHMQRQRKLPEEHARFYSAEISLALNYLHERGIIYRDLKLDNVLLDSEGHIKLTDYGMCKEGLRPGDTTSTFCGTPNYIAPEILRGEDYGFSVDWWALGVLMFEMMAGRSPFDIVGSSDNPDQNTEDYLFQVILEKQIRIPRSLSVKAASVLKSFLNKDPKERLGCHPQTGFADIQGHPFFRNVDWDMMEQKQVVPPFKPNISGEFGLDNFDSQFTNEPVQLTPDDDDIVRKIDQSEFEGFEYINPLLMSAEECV
Sequence of NEK3 (P51956 whole entry): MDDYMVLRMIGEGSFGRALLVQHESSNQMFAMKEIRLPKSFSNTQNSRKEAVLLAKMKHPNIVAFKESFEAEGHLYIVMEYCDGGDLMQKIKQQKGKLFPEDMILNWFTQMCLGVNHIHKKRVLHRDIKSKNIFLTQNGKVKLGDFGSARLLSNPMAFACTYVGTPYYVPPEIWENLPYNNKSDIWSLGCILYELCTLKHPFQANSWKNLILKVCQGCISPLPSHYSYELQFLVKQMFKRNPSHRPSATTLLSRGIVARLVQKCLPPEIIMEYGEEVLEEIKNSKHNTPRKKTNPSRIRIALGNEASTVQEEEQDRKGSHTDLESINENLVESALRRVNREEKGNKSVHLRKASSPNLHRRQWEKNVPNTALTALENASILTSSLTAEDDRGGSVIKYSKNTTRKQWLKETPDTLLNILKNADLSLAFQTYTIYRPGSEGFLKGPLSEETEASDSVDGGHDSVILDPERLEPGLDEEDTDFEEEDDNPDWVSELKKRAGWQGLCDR
Sequence of CLK2 (P49760 whole entry): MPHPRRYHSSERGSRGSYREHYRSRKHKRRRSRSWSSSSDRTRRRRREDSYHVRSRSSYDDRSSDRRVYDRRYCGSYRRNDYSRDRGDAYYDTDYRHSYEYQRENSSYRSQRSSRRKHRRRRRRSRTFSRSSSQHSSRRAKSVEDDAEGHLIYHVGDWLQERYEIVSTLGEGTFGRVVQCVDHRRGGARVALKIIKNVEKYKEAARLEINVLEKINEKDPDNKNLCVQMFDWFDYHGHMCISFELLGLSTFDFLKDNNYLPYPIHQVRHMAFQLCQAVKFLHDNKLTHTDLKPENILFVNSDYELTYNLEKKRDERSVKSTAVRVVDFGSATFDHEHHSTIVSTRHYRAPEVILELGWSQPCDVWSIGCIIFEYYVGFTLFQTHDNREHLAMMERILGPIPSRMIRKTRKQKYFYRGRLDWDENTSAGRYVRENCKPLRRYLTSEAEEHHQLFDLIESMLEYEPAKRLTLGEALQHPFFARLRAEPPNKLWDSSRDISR

Compound: Nc1ncc(-c2cccc3ncsc23)cc1-c1ccc2c(c1)CCNC2=O [Compound I-13, 6-(2-amino-5-(benzo[d]thiazol-7-yl)pyridin-3-yl)-3,4-dihydroisoquinolin-1(2H)-one]
- inhibition at 10 µM (MASTL; read-out: % inhibition (range)): 0%
- inhibition at 10 µM (MASTL; read-out: inhibition (10 μM)): -2%
- inhibition at 10 µM (TYK2 domain2; read-out: % inhibition (range)): 0%
- inhibition at 10 µM (TYK2 domain2; read-out: inhibition (10 μM)): 0.6%
- % inhibition (range) (p38d, p38g): 0.0%
- inhibition (10 μM) (p38d, p38g): −43.7%
- inhibition at 10 µM (PKR; read-out: % inhibition (range)): 0%
- inhibition at 10 µM (PKR; read-out: inhibition (10 μM)): -21.7%
- % inhibition (range) (NuaK1; 10 μM): 50-75% and 75-90%
- inhibition (10 μM) (NuaK1): 83.7%
- inhibition at 10 µM (NuaK1; read-out: inhibition (10 μM)): 71.7%
- inhibition at 10 µM (CK1a; read-out: % inhibition (range)): 0%
- inhibition at 10 µM (CK1a; read-out: inhibition (10 μM)): -17.4%
- inhibition at 10 µM (Erk1; read-out: % inhibition (range)): 75 to 90%
- inhibition at 10 µM (Erk1; read-out: inhibition (10 μM)): 75%
- inhibition at 10 µM (CLK2; read-out: % inhibition (range)): 0%
- inhibition at 10 µM (CLK2; read-out:): 19.1%
- inhibition at 10 µM (MPSK1; read-out: % inhibition (range)): 0%
- inhibition at 10 µM (MPSK1; read-out: inhibition (10 μM)): -28.8%
- inhibition at 10 µM (CDK7; read-out: % inhibition (range)): 0%
- inhibition at 10 µM (CDK7; read-out: inhibition (10 μM)): 32.9%
- inhibition at 10 µM (PKCi; read-out: % inhibition (range)): 0%
- inhibition at 10 µM (PKCi; read-out: inhibition (10 μM)): 21.4%
- inhibition at 10 µM (NEK3; read-out: % inhibition (range)): 0%
- inhibition at 10 µM (NEK3; read-out: inhibition (10 μM)): 5.3%
- inhibition at 10 µM (MARK3; read-out: % inhibition (range)): 35 to 50%
- inhibition at 10 µM (MARK3; read-out: inhibition (10 μM)): 46.2%
- inhibition at 10 µM (IRAK1; read-out: % inhibition (range)): 0%
- inhibition at 10 µM (IRAK1; read-out: inhibition (10 μM)): 28.5%
- inhibition at 10 µM (GSK3A; read-out: % inhibition (range)): > 90%
- inhibition at 10 µM (GSK3A; read-out: inhibition (10 μM)): 91.6%
- inhibition at 10 µM (MST1; read-out: % inhibition (range)): 75 to 90%
- inhibition at 10 µM (MST1; read-out: inhibition (10 μM)): 89%
- inhibition at 10 µM (MAP2K3; read-out: % inhibition (range)): 0%
- inhibition at 10 µM (MAP2K3; read-out: inhibition (10 μM)): 1.1%
- inhibition at 10 µM (p70S6K; read-out: % inhibition (range)): 0%
- inhibition at 10 µM (p70S6K; read-out: inhibition (10 μM)): -14.3%
- inhibition at 10 µM (MAST3; read-out: % inhibition (range)): 0%
- inhibition at 10 µM (MAST3; read-out: inhibition (10 μM)): 22%
- inhibition at 10 µM (p38a): 0%
- inhibition at 10 µM (SNRK; read-out: % inhibition (range)): 0%
- inhibition at 10 µM (SNRK; read-out: inhibition (10 μM)): 6.2%
- inhibition at 10 µM (HPK1; read-out: % inhibition (range)): 50 to 75%
- inhibition at 10 µM (HPK1; read-out: inhibition (10 μM)): 52.1%
- inhibition at 10 µM (JAK3 domain2; read-out: % inhibition (range)): 0%
- inhibition at 10 µM (JAK3 domain2; read-out: inhibition (10 μM)): -12.8%

Compound: CN(C1CC1)S(=O)(=O)c1ccc(-c2cnc(N)c(-c3ccc4c(c3)CCNC4=O)c2)c(F)c1 [Compound I-28, 4-(6-amino-5-(1-oxo-1,2,3,4-tetrahydroisoquinolin-6-yl)pyridin-3-yl)-N-cyclopropyl-3-fluoro-N-methylbenzenesulfonamide]
- inhibition at 10 µM (MASTL; read-out: % inhibition (range)): 0%
- inhibition at 10 µM (MASTL; read-out: inhibition (10 μM)): 10.2%
- inhibition at 10 µM (TYK2 domain2; read-out: % inhibition (range)): 0%
- inhibition at 10 µM (TYK2 domain2; read-out: inhibition (10 μM)): 3.8%
- % inhibition (range) (p38d, p38g): 0.0%
- inhibition (10 μM) (p38d, p38g): 7.7%
- inhibition at 10 µM (PKR; read-out: % inhibition (range)): 0%
- inhibition at 10 µM (PKR; read-out: inhibition (10 μM)): -0.8%
- inhibition (10 μM) (NuaK1): 66.7%
- inhibition at 10 µM (NuaK1; read-out: % inhibition (range)): 50 to 75%
- inhibition at 10 µM (NuaK1; read-out: inhibition (10 μM)): 55.6%
- inhibition at 10 µM (CK1a; read-out: % inhibition (range)): 35 to 50%
- inhibition at 10 µM (CK1a; read-out: inhibition (10 μM)): 37.8%
- inhibition at 10 µM (Erk1; read-out: % inhibition (range)): 0%
- inhibition at 10 µM (Erk1; read-out: inhibition (10 μM)): 11%
- inhibition at 10 µM (CLK2; read-out: % inhibition (range)): 35 to 50%
- inhibition at 10 µM (CLK2; read-out:): 42.7%
- inhibition at 10 µM (MPSK1; read-out: % inhibition (range)): 0%
- inhibition at 10 µM (MPSK1; read-out: inhibition (10 μM)): -9.1%
- inhibition at 10 µM (CDK7; read-out: % inhibition (range)): 0%
- inhibition at 10 µM (CDK7; read-out: inhibition (10 μM)): 12.3%
- inhibition at 10 µM (PKCi; read-out: % inhibition (range)): 0%
- inhibition at 10 µM (PKCi; read-out: inhibition (10 μM)): 12.7%
- inhibition at 10 µM (NEK3; read-out: % inhibition (range)): 0%
- inhibition at 10 µM (NEK3; read-out: inhibition (10 μM)): -27.2%
- inhibition at 10 µM (MARK3; read-out: % inhibition (range)): 0%
- inhibition at 10 µM (MARK3; read-out: inhibition (10 μM)): 14.5%
- inhibition at 10 µM (IRAK1; read-out: % inhibition (range)): 50 to 75%
- inhibition at 10 µM (IRAK1; read-out: inhibition (10 μM)): 67.8%
- inhibition at 10 µM (GSK3A; read-out: % inhibition (range)): > 90%
- inhibition at 10 µM (GSK3A; read-out: inhibition (10 μM)): 93.5%
- inhibition at 10 µM (MST1; read-out: % inhibition (range)): > 90%
- inhibition at 10 µM (MST1; read-out: inhibition (10 μM)): 94.5%
- inhibition at 10 µM (MAP2K3; read-out: % inhibition (range)): 0%
- inhibition at 10 µM (MAP2K3; read-out: inhibition (10 μM)): 1.4%
- inhibition at 10 µM (p70S6K; read-out: % inhibition (range)): 0%
- inhibition at 10 µM (p70S6K; read-out: inhibition (10 μM)): -22.7%
- inhibition at 10 µM (MAST3; read-out: % inhibition (range)): 0%
- inhibition at 10 µM (MAST3; read-out: inhibition (10 μM)): 14.2%
- inhibition at 10 µM (p38a): 0%
- inhibition at 10 µM (SNRK; read-out: % inhibition (range)): 0%
- inhibition at 10 µM (SNRK; read-out: inhibition (10 μM)): 0%
- inhibition at 10 µM (HPK1; read-out: % inhibition (range)): > 90%
- inhibition at 10 µM (HPK1; read-out: inhibition (10 μM)): 90.8%
- inhibition at 10 µM (JAK3 domain2; read-out: % inhibition (range)): 0%
- inhibition at 10 µM (JAK3 domain2; read-out: inhibition (10 μM)): 15.2%
